# Experimental data: patent publication US20110212455A1, “METHOD OF SCREENING MATERIAL FOR IMPROVING SKIN FUNCTIONS” (AMOREPACIFIC CORPORATION, priority 2008, published 2011)
# Key:
# MAP17 gene = MAP17 gene expression in human keratinocytes treated with ginsenoside-Re (Q-RT-PCR); assay type: cell-based; conditions: ginsenoside-Re 10 uM, 24 hours, vs untreated control, FIG. 5 (A)
# Description: (§1) Various human keratinocytes were treated with a variety of materials, and change in expression of MAP17 and filaggrin genes were monitored. It was investigated whether ginsenoside-Re, a kind of ginsenoid derived from the fruit of ginseng, regulates the expression of MAP17 and filaggrin genes. Human keratinocytes were purchased from Lonza, Inc. and cultured in KBM-2 medium (Clonetics CC-3103) in a CO2 incubator under a condition of 37° C. and 5% CO2.
# (§2) The cultured human keratinocytes without any treatment were used as a control group. For a test group, the human keratinocytes were further cultured for 24 hours after adding ginsenoside-Re (10 uM). Ginsenoside-Re was purchased from Wako (Kanagawa, Japan) and prepared into a solution according to the manufacturer's instructions. […]
# (§3) The isolated RNA was purified once more using Qiagen RNeasy kit (Qiagen, Valencia, Calif.) and RNA quality and concentration were verified using Agilent 2100 BioAnalyzer (Agilent Technologies, Santa Clara, Calif., USA). cDNA was synthesized from the isolated RNA using Superscript RT II kit (Invitrogen, Carlsbad, Calif.), and change in gene expression was quantitatively analyzed by means of Q-RT-PCR. Change in the expression pattern of MAP17 (Hs00173779_m1) and filaggrin (Hs00856927_g1) was evaluated using TaqMan® gene expression assay kit (Applied Biosystems, Foster City, Calif.) and is shown in FIG. 5.
# filaggrin gene = filaggrin gene expression in human keratinocytes treated with ginsenoside-Re (Q-RT-PCR); assay type: cell-based; conditions: ginsenoside-Re 10 uM, 24 hours, vs untreated control, FIG. 5 (B)
# Description: as §1, §2, §3
smiles,measurement,setting,value
CC(C)=CCC[C@](C)(O[C@@H]1O[C@H](CO)[C@@H](O)[C@H](O)[C@H]1O)[C@H]1CC[C@]2(C)[C@@H]1[C@H](O)C[C@@H]1[C@@]3(C)CC[C@H](O)C(C)(C)[C@@H]3[C@@H](O[C@@H]3O[C@H](CO)[C@@H](O)[C@H](O)[C@H]3O[C@@H]3O[C@@H](C)[C@H](O)[C@@H](O)[C@H]3O)C[C@]12C [ginsenoside-Re],expression of the MAP17 gene in human keratinocytes,MAP17 gene,markedly decreases
same,expression of the filaggrin gene in human keratinocytes,filaggrin gene,increases
